# Source: patent US5985871A, “Benzoxazine compounds for enhancing synaptic response” (Cortex Pharmaceuticals, Inc., priority 1997, dated 1999)
# How the values were obtained:
# [1] = system: AMPA receptors; experiment: field EPSP response in rat hippocampal slices; type: cell-based; details: for EPSP response, in words: comment on Table 1
# Description: Hippocampal tissue slices were perfused with artificial cerebrospinal fluid containing increasing concentrations of test compound at 15-30 minute intervals separated by perfusion with ACSF without the test compound, and the percent increases in EPSP amplitude and half-width before and after compound perfusion were determined.
# The physiological effects of compounds in accordance with the invention can be tested in vitro with slices of rat hippocampus according to the following procedure. Excitatory responses (field EPSPs) are measured in hippocampal slices, which are maintained in a recording chamber continuously perfused with artificial cerebrospinal fluid (ACSF). During a 15-30 minute interval, the perfusion medium is switched to one containing various concentrations of the test compounds. Responses collected immediately before and at the end of drug perfusion were superimposed in order to calculate both the percent increase in EPSP amplitude and percent increase in the width of the response at one-half the peak height (half-width). An increase in either measure, that is, of the amplitude or half-width, can be used as an indicator of beneficial therapeutic activity.
# To conduct these tests, the hippocampus was removed from anesthetized, 2 month old Sprague-Dawley rats and tissue slices (400 micrometers thick) were prepared and maintained in an interface chamber at 35° C. using conventional techniques [see, for example, Dunwiddie and Lynch, J. Physiol. […] A bipolar nichrome stimulating electrode was positioned in the dendritic layer (stratum radiatum) of the hippocampal subfield CA1 close to the border of subfield CA3.
# Current pulses (0.1 msec) through the stimulating electrode activate a population of the Schaffer-commissural (SC) fibers, which arise from neurons in the subdivision CA3 and terminate in synapses on the dendrites of CA1 neurons. Activation of these synapses causes them to release the transmitter glutamate. Glutamate binds to the post-synaptic AMPA receptors which then transiently open an associated ion channel and permit a sodium current to enter the postsynaptic cell. This current results in a voltage in the extracellular space (the field excitatory post-synaptic potential or field "EPSP") which is recorded by a high impedance recording electrode positioned in the middle of the stratum radiatum of CA1.
# For the experiments summarized in Table 1, the intensity of the stimulation current was adjusted to produce half-maximal EPSPs (typically about 1.5-2.0 mV). Paired stimulation pulses were given every 40 sec with an interpulse interval of 200 msec (see below). The field EPSPs of the second response were digitized and analyzed to determine amplitude, half-width, and response area. If the responses were stable for 15-30 minutes (baseline), test compounds were added to the perfusion lines for a period of about 20 minutes. The perfusion was then changed back to regular ACSF.
# Paired-pulse stimulation was used because stimulation of the SC fibers, in part, activates interneurons that generate an inhibitory postsynaptic potential (IPSP) in the pyramidal cells of CA1. This feed forward IPSP typically sets in after the EPSP reaches its peak. It accelerates the repolarization and shortens the decay phase of the EPSP, and thus could partially mask the effects of the test compounds. One of the relevant features of the feed-forward IPSP is that it can not be reactivated for several hundred milliseconds following a stimulation pulse. This phenomenon can be employed to advantage to eliminate IPSP by delivering paired pulses separated by 200 milliseconds and using the second ("primed") response for data analysis.
# [2] = system: rats; experiment: 8-arm radial maze memory test; type: in vivo, rat; details: for minimal effective dose: Rattus norvegicus, read-out: Maze MED (Minimum Effective Dose); for minimal effective dose / Maze MED (Minimum Effective Dose): threshold dose for enhancing memory in rats, 8-arm radial maze
# Description: The right bar of each pair represents the results for the same animals administered vehicle alone on alternate days of testing.
# All of the data in FIG. 1 were obtained using the same group of ten rats. […] In other words, vehicle alone was administered to the group on days 1, 3 and 5, and compound at a selected dosage was administered on days 2 and 4. […] Error bars indicate the standard error of the mean (SEM). The asterisks (*) in the figure indicate data wherein p<0.05 by the paired t test.
# [3] = peripheral administration in humans; Guenzi and Zanetti 1990; cited from earlier work
# [4] = system: brain AMPA receptors; details: metabolite of aniracetam; cited from earlier work
# [5] = compound concentration 30 μM, rat hippocampal slice, field CA1
# [6] = compound concentration 100 μM, rat hippocampal slice, field CA1
compound,measurement,setting,value
"O=C1c2cc3c(cc2OC2SCCN12)OCO3 (centres unmarked) [Compound 4, 7,8-Dihydro-5aH, 10H-1,3-dioxolo[4,5-g]thiazolo[2,3-b][1,3]benzoxazin-10-one]","EPSP response, in words",[1],About the same activity
same,EPSP Response (percent increase in amplitude of the EPSP response),[1]; [5],20%
"O=C1c2cc3c(cc2OC2OCCCN12)OCO3 (centres unmarked) [Compound 7, 8,9-Dihydro-5aH, 7H, 10H-1,3-dioxolo[4,5-g][1,3]oxazino[2,3-b][1,3]benzoxazin-11-one]",EPSP Response (percent increase in amplitude of the EPSP response),[1]; [5],15%
"CC12OCCN1C(=O)c1cc3c(cc1O2)OCO3 (centres unmarked) [Compound 8, 7,8-Dihydro-5a-methyl-10H-1,3-dioxolo[4,5-g]oxazolo[2,3-b][1,3]benzoxazin-10-one]",EPSP Response (percent increase in amplitude of the EPSP response),[1]; [6],8%
"O=C1c2cc3c(cc2OC2CCCN12)OCO3 (centres unmarked) [Compound 1c, reference compound]",minimal effective dose,[2],1 mg/kg
same,EPSP Response (percent increase in amplitude of the EPSP response),[1]; [6],25%
"O=C(NCCO)c1cc2c(cc1O)OCO2 [Compound 1i, 2-(2-Hydroxy-4,5-methylenedioxybenzamido)ethanol]","EPSP response, in words",[1],increased EPSP response
same,EPSP Response (percent increase in amplitude of the EPSP response),[1]; [6],8%
"O=C1c2cc3c(cc2OC2OCCN12)OCO3 (single isomer, unassigned) [Column Fraction 2]",MED of less active enantiomer relative to active enantiomer,"[2]; enantiomers of compound 1, maze test",50 fold
same,Maze MED (Minimum Effective Dose),[2]; listed as less active enantiomer,0.5 mg/kg
same,EPSP Response (percent increase in amplitude of the EPSP response),"[1]; compound concentration 50 μM, resolved enantiomers of compound 1, listed as second-eluting enantiomer",does not detectably change
"O=C1c2cc3c(cc2OC2CCCN12)OCCO3 (centres unmarked) [Compound 2c, reference compound]",minimal effective dose,[2],0.1 mg/kg
same,EPSP Response (percent increase in amplitude of the EPSP response),"[1]; compound concentration >30 μM, rat hippocampal slice, field CA1",25%
"COc1ccc(C(=O)N2CCCC2=O)cc1 [aniracetam, N-anisoyl-2-pyrrolidinone]",fraction of drug converted to anisoyl-GABA,[3],about 80%
COc1ccc(C(=O)NCCCC(=O)O)cc1 [anisoyl-GABA],aniracetam-like effects,[4],only weak aniracetam-like effects
"CC1(C)Oc2cc3c(cc2O1)C(=O)N1CCOC1O3 (centres unmarked) [Compound 3, 7,8-Dihydro-2,2-dimethyl-5aH, 10H-1,3-dioxolo[4,5-g]oxazolo[2,3-b][1,3]benzoxazin-10-one]",EPSP Response (percent increase in amplitude of the EPSP response),[1]; [5],33%
"O=C1c2cc3c(cc2OC2OCCN12)OCCO3 (centres unmarked) [Compound 2, 8,9-Dihydro-6aH, 11H-1,4-dioxan[2,3-g]oxazolo[2,3-b][1,3]benzoxazin-11-one]",minimal effective dose,[2],0.01 mg/kg
same,EPSP Response (percent increase in amplitude of the EPSP response),"[1]; compound concentration 5 μM, rat hippocampal slice, field CA1",35%
"O=C1c2cc3c(cc2OC2OCCN12)OCO3 (single isomer, unassigned) [Column Fraction 1]",Maze MED (Minimum Effective Dose),[2]; listed as active enantiomer of compound 1,0.01 mg/kg
same,EPSP Response (percent increase in amplitude of the EPSP response),"[1]; compound concentration 50 μM, resolved enantiomers of compound 1, listed as first-eluting enantiomer",80%
"CC1CN2C(=O)c3cc4c(cc3OC2O1)OCO4 (single isomer, unassigned) [Compound 5.1, 7,8-Dihydro-7-methyl-5aH, 10H-1,3-dioxolo[4,5-g]oxazolo[2,3-b][1,3]benzoxazin-10-one]",EPSP Response (percent increase in amplitude of the EPSP response),[1]; [5],14%
"CC1CN2C(=O)c3cc4c(cc3OC2O1)OCO4 (single isomer, unassigned) [Compound 5.2, 7,8-Dihydro-7-methyl-5aH, 10H-1,3-dioxolo[4,5-g]oxazolo[2,3-b][1,3]benzoxazin-10-one]",EPSP Response (percent increase in amplitude of the EPSP response),[1]; [5],10%
"CC1COC2Oc3cc4c(cc3C(=O)N12)OCO4 (centres unmarked) [Compound 6, 7,8-Dihydro-8-methyl-5aH, 10H-1,3-dioxolo[4,5-g]oxazolo[2,3-b][1,3]benzoxazin-10-one]",EPSP Response (percent increase in amplitude of the EPSP response),[1]; [6],10%
"O=C1c2cc3c(cc2OC2OCCN12)OCO3 (racemic) [Compound 1, 7,8-Dihydro-5aH, 10H-1,3-dioxolo[4,5-g]oxazolo[2,3-b][1,3]benzoxazin-10-one]",average total number of errors,"[2]; FIG. 1, 0.03, 0.1 and 0.5 mg/kg versus vehicle, ten rats","significant, dose-dependent reduction"
same,average number of correct choices before the first error,"[2]; FIG. 1, 0.03, 0.1 and 0.5 mg/kg versus vehicle, ten rats, retention phase","significant, dose-dependent increase"
same,Maze MED (Minimum Effective Dose),[2],0.05 mg/kg
same,EPSP Response (percent increase in amplitude of the EPSP response),[1]; [5],34%
same,EPSP Response (percent increase in amplitude of the EPSP response),"[1]; compound concentration 50 μM, resolved enantiomers of compound 1",80%
"O=C1c2cc3c(cc2OC2CCCCN12)OCO3 (centres unmarked) [Compound 7c, reference compound]",EPSP Response (percent increase in amplitude of the EPSP response),"[1]; compound concentration 300 μM, rat hippocampal slice, field CA1",25%
